According to patent US11634391B2, “Compounds which are inhibitors of Notum” (UCL BUSINESS LTD, priority 2018, dated 2023):
Structures can show the parent of a compound that is named as a salt.

Biological target: notum carboxyesterase enzyme (Homo sapiens (Human), UniProt Q6P988)
Experiment: Biochemical Notum Enzymatic Activity Assay (OPTS substrate, fluorescence)
Conditions: 2 μM OPTS solution, 2.38 nM notum enzyme solution, 1 hour incubation at room temperature, fluorescence ex 485 nm / em 520 nm; n≥2
Source text: Plate layout and measured fluorescence values were input into Dotmatics Studies data management tool.

Chain of notum carboxyesterase enzyme (Q6P988 20-496): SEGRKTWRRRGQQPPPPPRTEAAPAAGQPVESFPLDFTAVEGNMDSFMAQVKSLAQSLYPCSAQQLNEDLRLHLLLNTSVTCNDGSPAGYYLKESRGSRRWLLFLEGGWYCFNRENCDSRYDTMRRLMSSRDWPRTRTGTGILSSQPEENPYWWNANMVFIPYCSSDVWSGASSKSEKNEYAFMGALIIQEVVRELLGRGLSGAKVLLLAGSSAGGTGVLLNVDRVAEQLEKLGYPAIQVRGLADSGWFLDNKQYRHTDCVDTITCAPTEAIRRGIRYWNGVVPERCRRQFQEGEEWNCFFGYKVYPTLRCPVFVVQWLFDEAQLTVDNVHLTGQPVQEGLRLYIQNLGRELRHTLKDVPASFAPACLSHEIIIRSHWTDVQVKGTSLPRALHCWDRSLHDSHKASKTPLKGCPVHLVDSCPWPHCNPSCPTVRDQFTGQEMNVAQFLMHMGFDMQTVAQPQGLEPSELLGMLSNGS

Compound	IC50
OCc1cn(-c2cc(Cl)cc(Cl)c2)nn1 [Compound 27, (1-(3,5-dichlorophenyl)-1H-1,2,3-triazol-4-yl)methanol]	3.03 µM
Cc1nnc(-c2ccc(Cl)c(C(F)(F)F)c2Cl)o1 [Compound 299, 2-(2,4-dichloro-3-(trifluoromethyl)phenyl)-5-methyl-1,3,4-oxadiazole]	0.027 µM
N#Cc1nnc(-c2ccccc2)o1 [Compound 132, 5-phenyl-1,3,4-oxadiazole-2-carbonitrile]	18.8 µM
CCOc1cccc(-c2nnc(N)s2)c1 [Compound 48, 5-(3-ethoxyphenyl)-1,3,4-thiadiazol-2-amine]	85.9 µM
OCc1cn(-c2ccc3c(c2)OCCO3)nn1 [Compound 6, (1-(2,3-dihydrobenzo[b][1,4]dioxin-6-yl)-1H-1,2,3-triazol-4-yl)methanol]	44.6 µM
4-(4-(1,3,4-oxadiazol-2-yl)-2-(trifluoromethyl)phenyl)pyrrolidine [Compound 280]	0.405 µM
FC(F)(F)c1c(Cl)ccc(-c2c[nH]nn2)c1Cl [Compound 306, 4-[2,4-dichloro-3-(trifluoromethyl)phenyl]-1H-triazole]	0.0029 µM
NCc1cc(-c2ccc(Cl)cc2)no1 [Compound 167, (3-(4-chlorophenyl)isoxazol-5-yl)methanamine]	70.2 µM
FC(F)(F)c1c(Cl)ccc(-n2cnnn2)c1Cl [Compound 298, 1-(2,4-dichloro-3-(trifluoromethyl)phenyl)-1H-tetrazole]	0.136 µM
FC(F)(F)c1cc(-c2nnco2)ccn1 [Compound 222, 2-[2-(trifluoromethyl)-4-pyridyl]-1,3,4-oxadiazole]	8.05 µM
NCc1cc(-c2cccc(Cl)c2)no1 [Compound 147, (3-(3-chlorophenyl)isoxazol-5-yl)methanamine]	15.2 µM
Clc1ccc(-c2n[nH]c(-c3ccccn3)n2)cc1Cl [Compound 130, 2-(3-(3,4-dichlorophenyl)-1H-1,2,4-triazol-5-yl)pyridine]	0.596 µM
OCc1cn(-c2ccc(Cl)c(OCc3ccccc3)c2)nn1 [Compound 17, (1-(3-(benzyloxy)-4-chlorophenyl)-1H-1,2,3-triazol-4-yl)methanol]	5.69 µM
OCc1cn(-c2ccc(C(F)(F)F)cc2)nn1 [Compound 271, (1-(4-(trifluoromethyl)phenyl)-1H-1,2,3-triazol-4-yl)methanol]	8.7 µM
OCc1cn(-c2ccc3ccccc3c2)nn1 [Compound 3, (1-(naphthalen-2-yl)-1H-1,2,3-triazol-4-yl)methanol]	1.28 µM
OCCCc1cn(-c2ccc(Cl)c(C(F)(F)F)c2)nn1 [Compound 302, 3-[1-[4-chloro-3-(trifluoromethyl)phenyl]triazol-4-yl]propan-1-ol]	7.51 µM
COc1nnc(-c2cccc(Cl)c2)o1 [Compound 176, 2-(3-chlorophenyl)-5-methoxy-1,3,4-oxadiazole]	5.36 µM
FC(F)(F)c1cc(-c2cc[nH]n2)ccc1Cl [Compound 51, 3-(4-chloro-3-(trifluoromethyl)phenyl)-1H-pyrazole]	1.36 µM
CC(C)c1ccc(-n2cnnn2)cc1 [Compound 217, 1-(4-isopropylphenyl)tetrazole]	21.4 µM
FC(F)(F)c1cccc(-n2cnnn2)c1 [Compound 213, 1-[3-(trifluoromethyl)phenyl]tetrazole]	4.87 µM

Compound	IC50
NCc1cn(-c2cc(Cl)cc(Cl)c2)nn1 [Compound 36, (1-(3,5-dichlorophenyl)-1H-1,2,3-triazol-4-yl)methanamine hydrochloride]	44.6 µM
COc1nnc(-c2ccc(Cl)c(C(F)(F)F)c2Cl)o1 [Compound 243, 2-(2,4-dichloro-3-(trifluoromethyl)phenyl)-5-methoxy-1,3,4-oxadiazole]	0.0058 µM
Oc1nnc(-c2cc(C3CC3)cc(C(F)(F)F)c2)o1 [Compound 211, 5-[3-cyclopropyl-5-(trifluoromethyl)phenyl]-1,3,4-oxadiazol-2-ol]	0.433 µM
OCc1ncn(-c2ccc(Cl)c(Cl)c2)n1 [Compound 47, (1-(3,4-dichlorophenyl)-1H-1,2,4-triazol-3-yl)methanol]	49.5 µM
Nc1nnc(-c2ccc(Cl)c(C(F)(F)F)c2Cl)o1 [Compound 248, 5-[2,4-dichloro-3-(trifluoromethyl)phenyl]-1,3,4-oxadiazol-2-amine]	0.0119 µM
OCc1cn(-c2ccc(Cl)c(C(F)(F)F)c2)nn1 [Compound 9, (1-(4-chloro-3-(trifluoromethyl)phenyl)-1H-1,2,3-triazol-4-yl)methanol]	0.0935 µM
FC(F)(F)c1cc(-n2cnnn2)ccc1Cl [Compound 215, 1-[4-chloro-3-(trifluoromethyl)phenyl]tetrazole]	0.457 µM
Fc1ccc(-c2cc[nH]n2)cc1F [Compound 53, 3-(3,4-difluorophenyl)-1H-pyrazole]	16.7 µM
CNc1nnc(-c2ccc(Cl)c(C(F)(F)F)c2Cl)o1 [Compound 249, 5-(2,4-dichloro-3-(trifluoromethyl)phenyl)-N-methyl-1,3,4-oxadiazol-2-amine]	0.0319 µM
FC(F)(F)c1ccc(-c2nnco2)cc1C1COC1 [Compound 181, 2-[3-(oxetan-3-yl)-4-(trifluoromethyl)phenyl]-1,3,4-oxadiazole]	0.257 µM
OCc1cn(-c2cccc(Cl)c2)nn1 [Compound 21, (1-(3-chlorophenyl)-1H-1,2,3-triazol-4-yl)methanol]	9.49 µM
OCc1cn(-c2ccc(Cl)c(Cl)c2)cn1 [Compound 127, [1-(3,4-dichlorophenyl)imidazol-4-yl]methanol]	5.95 µM
O=C(O)c1cn(-c2ccc(Cl)c(C(F)(F)F)c2)nn1 [Compound 58, 1-(4-chloro-3-(trifluoromethyl)phenyl)-1H-1,2,3-triazole-4-carboxylic acid]	0.97 µM
OCc1cn(-c2ccccc2Cl)nn1 [Compound 20, (1-(2-chlorophenyl)-1H-1,2,3-triazol-4-yl)methanol]	39.1 µM
Clc1ccc(-n2cnnn2)cc1Cl [Compound 214, 1-(3,4-dichlorophenyl)tetrazole]	1.56 µM
ClCc1nnc(-c2ccc(Cl)c(Cl)c2)o1 [Compound 125, 2-(chloromethyl)-5-(3,4-dichlorophenyl)-1,3,4-oxadiazole]	61 µM
Clc1ccc(-n2ccnc2)cc1 [Compound 149, 1-(4-chlorophenyl)imidazole]	5.16 µM
NCc1cn(-c2ccccc2)nn1 [Compound 39, (1-phenyl-1H-1,2,3-triazol-4-yl)methanamine]	4.87 µM
CC(C)c1ccc(-n2ccnn2)cc1 [Compound 60, 1-(4-isopropylphenyl)-1H-1,2,3-triazole]	0.995 µM
NCc1cc(-c2ccccc2)no1 [Compound 143, (3-phenylisoxazol-5-yl)methanamine]	11.6 µM

Compound	IC50
CC(O)c1cn(-c2ccc(Cl)c(C(F)(F)F)c2Cl)nn1 (centres unmarked) [Compound 310, 1-[1-[2,4-dichloro-3-(trifluoromethyl)phenyl]triazol-4-yl]ethanol]	1.83 µM
OCc1nnc(-c2ccc(Cl)c(Cl)c2)o1 [Compound 126, [5-(3,4-dichlorophenyl)-1,3,4-oxadiazol-2-yl]methanol]	0.726 µM
FC(F)(F)c1cc(-c2nnco2)ccc1C1COC1 [Compound 284, 2-(4-(oxetan-3-yl)-3-(trifluoromethyl)phenyl)-1,3,4-oxadiazole]	4.05 µM
CC(C)(O)c1cn(-c2ccc(Cl)c(Cl)c2)nn1 [Compound 41, 2-(1-(3,4-dichlorophenyl)-1H-1,2,3-triazol-4-yl)propan-2-ol]	> 10 µM
OCc1nnc(-c2ccc(Cl)c(C(F)(F)F)c2)o1 [Compound 296, (5-(4-chloro-3-(trifluoromethyl)phenyl)-1,3,4-oxadiazol-2-yl)methanol]	0.14 µM
Cc1nnnn1-c1ccc(Cl)c(C(F)(F)F)c1 [Compound 182, 1-[4-chloro-3-(trifluoromethyl)phenyl]-5-methyl-tetrazole]	1.17 µM
Clc1ccc(-c2cnco2)cc1 [Compound 151, 5-(4-chlorophenyl)oxazole]	5.74 µM
FC(F)(F)c1cc(-n2ccnn2)cc(Cl)c1Cl [Compound 309, 1-[3,4-dichloro-5-(trifluoromethyl)phenyl]triazole]	0.107 µM
FC(F)(F)c1cc(-c2nnco2)cc(C2COC2)c1 [Compound 188, 2-[3-(oxetan-3-yl)-5-(trifluoromethyl)phenyl]-1,3,4-oxadiazole]	24.7 µM
O=C(O)c1cc(-c2ccc(Cl)cc2)c[nH]1 [Compound 160, 4-(4-chlorophenyl)-1H-pyrrole-2-carboxylic acid]	21 µM
COc1ccc(-c2cc[nH]n2)c(O)c1 [Compound 57, 5-methoxy-2-(1H-pyrazol-3-yl)phenol]	34.2 µM
Cc1cn(-c2ccc(Cl)c(C(F)(F)F)c2Cl)nn1 [Compound 301, 1-(2,4-dichloro-3-(trifluoromethyl)phenyl)-4-methyl-1H-1,2,3-triazole]	0.108 µM
OCc1cn(-c2ccc(Cl)cc2Cl)nn1 [Compound 8, (1-(2,4-dichlorophenyl)-1H-1,2,3-triazol-4-yl)methanol]	7.2 µM
CCOc1nnc(-c2ccc(Cl)c(C(F)(F)F)c2Cl)o1 [Compound 242, 2-(2,4-dichloro-3-(trifluoromethyl)phenyl)-5-ethoxy-1,3,4-oxadiazole]	0.0043 µM
O=c1cccc(-c2ccccc2)[nH]1 [Compound 237, 6-phenylpyridin-2(1H)-one]	49.6 µM
OCc1cn(-c2ccccc2F)nn1 [Compound 273, (1-(2-Fluorophenyl)-1H-1,2,3-triazol-4-yl)methanol]	63.6 µM
FC(F)(F)c1cc(-n2ccnn2)ccc1N1CCCC1 [Compound 286, 1-(4-(pyrrolidin-1-yl)-3-(trifluoromethyl)phenyl)-1H-1,2,3-triazole]	0.862 µM
Nc1nnc(-c2ccc(Cl)cc2)s1 [Compound 168, 5-(4-chlorophenyl)-1,3,4-thiadiazol-2-amine]	8.29 µM
OCc1cn(-c2ccc(Cl)c(C(F)(F)F)c2Cl)nn1 [Compound 277, [1-[2,4-dichloro-3-(trifluoromethyl)phenyl]triazol-4-yl]methanol]	0.0096 µM
